Values after ≈ are worked out from the molar mass of the structure shown.
How the values were obtained:
in vitro [1] = details: SD, HW or BN, rat, plasma
in vitro [2] = details: Beagle, dog, plasma
in vitro [3] = details: human, plasma
physchem [4] = details: octan-1-ol/water, pH 7.4, LogD7.4
in vitro [5] = details: human
physchem [6] = details: pH 7.4 buffer

| Structure (SMILES) | fraction unbound at 5 h (in vitro [1]) | fraction unbound at 5 h (in vitro [2]) | fraction unbound at 5 h (in vitro [3]; PPB) | logD (physchem [4]) | microsomal CLint (in vitro [5]; microsomes) [µL/min/mg] | microsomal CLint (in vitro [5]; liver microsomes) [µL/min/mg] | solubility thermodynamic (physchem [6]) [µM] | fraction unbound at 5 h (in vitro [3]) |
| --- | --- | --- | --- | --- | --- | --- | --- | --- |
| NC(=O)c1cnc(N[C@H]2CCCNC2)c2cc(-c3ccccc3)sc12 | 0.224 | 0.0366 | – | – | – | – | – | – |
| O=C(NC12CC3CC(CC(C3)C1)C2)OCCNC1CCCCC1 | 0.129 | 0.16 | 0.11 | – | – | – | – | – |
| Cc1cc(Nc2nc(O[C@@H](C)c3ncc(F)cn3)ncc2Cl)[nH]n1 | 0.339 | 0.489 | 0.249 | 1.82 | – | – | – | – |
| CCOc1cc2nnc(C(N)=O)c(Nc3ccc(C)cc3F)c2cc1N1CCN(C)CC1 | 0.0633 | 0.062 | 0.016 | – | – | – | – | – |
| CC(C)(C)OC(=O)NC[C@H]1CC[C@H](CNC(=O)c2cc(N3CCC(CCO)CC3)nc3ccccc23)CC1 | 0.0099 | 0.0084 | 0.007 | – | – | – | – | – |
| Cc1c(Sc2ccc(Cl)cc2)c2c(S(C)(=O)=O)cccc2n1CC(=O)O | – | 0.0256 | 0.035 | 0.58 | < 3 | – | – | – |
| O=c1cc(N2CCOCC2)nc2n(Cc3cccc4ccccc34)ccn12 | 0.0477 | 0.0676 | 0.0307 | 3.3 | – | – | – | – |
| Cc1cc(C(C)Nc2ccccc2)c2nc(N3CCOCC3)cc(=O)n2c1 (centres undefined) | 0.0467 | 0.0606 | 0.0532 | – | – | – | – | – |
| N[C@H]1CCN(c2c(Cl)cccc2/C=C2\SC(=O)NC2=O)C1 | 0.0467 | 0.0581 | 0.0234 | 1.89 | – | – | – | – |
| CCOc1noc2cc(OCCC3CCN(c4ccc(C)nn4)CC3)ccc12 | 0.0015 | 0.0031 | 0.0014 | – | – | – | – | – |
| Cc1cc(F)ccc1Oc1cccc2c(=O)cc(N3CCOCC3)[nH]c12 | 0.0854 | 0.0088 | – | – | – | – | – | – |
| COc1ccc2c(c1)c(CC(=O)O)c(C)n2-c1ccnc2cc(Cl)ccc12 | – | 0.0183 | 0.0099 | 1.68 | – | < 3 | – | – |
| Cc1ccc(NC(=O)c2cccc(C(C)(C)C#N)c2)cc1Nc1ccc2ncn(C)c(=O)c2c1 | 0.5 | 0.004 | 0.0039 | – | – | – | – | – |
| CC(C)Oc1cc(-n2cnc3ccc(N[C@@H](CO)c4ccc(F)cn4)nc32)n[nH]1 | 0.186 | 0.304 | 0.0818 | 2.79 | – | – | – | – |
| CC(C)Oc1cc(Nc2nc3c(cc2F)ncn3[C@@H](CO)c2ccc(F)cn2)n[nH]1 | 0.119 | 0.249 | 0.051 | 2.97 | – | – | – | – |
| N#Cc1ccccc1C[C@@H](C(=O)O)N1CCC(CN2CCC(Oc3ccc(Cl)c(Cl)c3)CC2)CC1 | 0.224 | 0.0661 | – | – | – | – | 288 (≈ 149 µg/mL) | – |
| N#Cc1ccc2ccc(=O)n(CCN3CC[C@H](NCc4cc5c(cn4)OCCO5)[C@H](O)C3)c2c1 | 0.734 | 0.608 | – | 0.46 | – | – | – | – |
| N#Cc1ccc2ccc(=O)n(CCN3CC[C@@H](NCc4cc5c(cn4)OCCO5)[C@@H](O)C3)c2c1 | 0.471 | 0.602 | – | 0.45 | – | – | – | – |
| C[C@H]1CN(c2cc(N(CCO)Cc3cccc4ccccc34)[nH]c(=O)n2)CCO1 | 0.0948 | 0.299 | 0.16 | – | – | – | – | – |
| CCNC(=O)Nc1nc2cc(-c3cccnc3)cc(-c3ncccc3F)c2[nH]1 | 0.028 | 0.04 | 0.0136 | – | – | – | – | – |
| C[S+]([O-])Cc1ccc(C(=O)Nc2ccc(OCCOCCO)nc2C(=O)NCC2CCC2)c2ccccc12 (centres undefined) | 0.0343 | 0.0581 | 0.0499 | – | – | – | – | – |
| CC(C)(C)NC(=O)NCCN1CCCC(NC(=O)c2cc(Cl)cc(Cl)c2)C1 (centres undefined) | 0.0391 | 0.0633 | 0.028 | – | – | – | – | – |

| Structure (SMILES) | fraction unbound at 5 h (in vitro [1]) | fraction unbound at 5 h (in vitro [2]) | fraction unbound at 5 h (in vitro [3]; PPB) | logD (physchem [4]) | microsomal CLint (in vitro [5]; microsomes) [µL/min/mg] | microsomal CLint (in vitro [5]; liver microsomes) [µL/min/mg] | solubility thermodynamic (physchem [6]) [µM] | fraction unbound at 5 h (in vitro [3]) |
| --- | --- | --- | --- | --- | --- | --- | --- | --- |
| CC(C)(C)NC(=O)NCCN1CCC(O)(CNC(=O)c2cc(Cl)cc(Cl)c2)CC1 | 0.232 | 0.36 | 0.232 | – | – | – | – | – |
| O=C(CN1CCN(CCC2CCOCC2)CC1)NC12CC3CC(CC(C3)C1)C2 | 0.392 | 0.431 | 0.529 | – | – | – | – | – |
| CC(C)(C)S(=O)(=O)CCCN1CCN(CC(=O)NC23CC4CC(CC(C4)C2)C3)CC1 | 0.309 | 0.289 | 0.349 | – | – | – | – | – |
| CC(C)(C)NC(=O)NCCN1CCC(CNC(=O)c2cc(Cl)cc(Cl)c2)CC1 | 0.17 | 0.11 | 0.11 | – | – | – | – | – |
| CC(C)(C)NC(=O)NCCN1CCOC(CNC(=O)c2cc(Cl)cc(Cl)c2)C1 (centres undefined) | 0.0676 | 0.0818 | 0.0606 | – | – | – | – | – |
| CC(C)(C)NC(=O)NCCN1CCC(CNC(=O)c2cc(Cl)cc(Cl)c2)C1 (centres undefined) | 0.139 | 0.0909 | 0.0968 | – | – | – | – | – |
| O=C(NCC12CC3CC(CC(C3)C1)C2)c1cc(CN2C[C@@H]3C[C@H]2CN3)ccc1Cl | – | 0.114 | 0.0968 | 1.45 | – | 13 | – | – |
| COc1ccc2c(C)cc(N[C@H]3CC[C@H](NCc4cn(C)c5ccc(C#N)cc45)C3)nc2c1 | 0.0146 | 0.0209 | 0.0139 | – | – | – | – | – |
| CCOc1cc2ncc(C(N)=O)c(Nc3cc(C)ccc3F)c2cc1N1CCN(C)CC1 | 0.107 | 0.365 | – | – | – | – | – | – |
| CCOc1cc2ncc(C(N)=O)c(Nc3cccc(Cl)c3F)c2cc1N1CCN(C)CC1 | 0.134 | 0.204 | 0.0705 | – | – | – | – | – |
| Cc1cc(Nc2nc(N[C@@H](C)c3ncc(F)cn3)c(C#N)nc2C)n[nH]1 | 0.349 | 0.454 | 0.304 | 1.92 | – | – | – | – |
| Cc1cc(Nc2cnc(C#N)c(N[C@@H](C)c3ncc(F)cn3)n2)n[nH]1 | 0.376 | 0.398 | 0.186 | 1.96 | – | – | – | – |
| Cc1cc(Nc2cnc(C#N)c(N[C@@H](C)c3ccc(F)cn3)n2)n[nH]1 | 0.16 | 0.204 | 0.145 | 2.51 | – | – | – | – |
| Cc1cc(Nc2nc(N[C@@H](C)c3ccc(F)cn3)c(C#N)nc2C)n[nH]1 | 0.19 | 0.262 | 0.173 | – | – | – | – | – |
| COc1cc2c(cc1OC)C(=O)C(CC1CCN(Cc3ccccc3)CC1)C2 (centres undefined) [DONEPEZIL] | 0.339 | 0.613 | 0.105 | – | – | – | – | – |
| O=C(Cn1c(Cl)cnc(NCC(F)(F)c2ccccn2)c1=O)NCc1ncccc1F [DPOC-4088] | 0.208 | 0.392 | 0.28 | – | – | – | – | – |
| CCCn1c(=O)[nH]c(=O)c2[nH]cnc21 [ENPROFYLLINE] | 0.212 | 0.392 | 0.329 | – | – | – | – | – |
| CN(C)CCCN1c2ccccc2CCc2ccccc21 [IMIPRAMINE] | 0.173 | 0.0437 | – | – | – | – | – | 0.121 |
| C[C@@H]1C[C@H]2[C@@H]3CCC4=CC(=O)C=C[C@]4(C)[C@@]3(Cl)[C@@H](O)C[C@]2(C)[C@@]1(OC(=O)c1ccco1)C(=O)CCl [MOMETASONE FUROATE] | 0.001 | 0.003 | 0.0023 | – | – | – | – | – |
| COC(=O)C1=C(C)NC(C)=C(C(=O)OC)C1c1ccccc1[N+](=O)[O-] [NIFEDIPINE] | 0.0023 | 0.0736 | – | – | – | – | – | 0.0383 |
| CCNC(=O)[C@H]1C[C@@](F)(c2ccc(CN3CCCC3)c(F)c2)C1 [PF-03654746] | 0.772 | 0.807 | – | – | – | – | – | – |
| O=C(O)CCn1c2c(c3ccccc31)C[C@H](NS(=O)(=O)c1ccc(F)cc1)CC2 [RAMATROBAN] | 0.0328 | 0.0437 | 0.0274 | – | – | – | – | – |
